Source: patent publication US9125824B1 (InnoVitamin Organics, LLC, priority 2010, dated 2015)

Assay: storage stability of trans-resveratrol under controlled temperature and humidity
Format: physicochemical
Settings: stored at 10.0° C. (50 degrees F.) to approximately 30° C. (86 degrees F.), humidity less than 35 percent
Description: (50 degrees F.) to approximately 30° C.
Twenty five (25) kilograms of fine powder consisting of pomace, vines and leaves is stored in a cool, dark, dry location for shipping to the dietary supplement manufacturing facility. The temperature range of the storage area is in a range of between approximately 10.0° C. (50 degrees F.) to approximately 30° C. (86 degrees F.) and the dry location has a humidity level of less than 35 percent water vapor in the air.

- stability during storage and processing: remain stable
- stability during storage and processing (listed as organic trans-resveratrol): remains a stable compound
Structure (SMILES): Oc1ccc(/C=C/c2cc(O)cc(O)c2)cc1 [trans-resveratrol]
